ChEMBL document CHEMBL4842383 (J Med Chem, 2021)
The source made the active and inactive calls. The calls are words filed in the database; no cut-off is given here.

How the values were obtained:
Aurora kinase B [1] = molecular target: T1, Aurora kinase B (Homo sapiens, UniProt Q96GD4); experiment: Inhibition of human recombinant full length GST-AURKB using tetra(-LRRASLG) peptide as substrate at 0.1 uM incubated for 20 mins by ATP Kinase Glo assay; type: biochemical; details: Sf9
[2] = molecular target: T2, Macrophage colony-stimulating factor 1 receptor (Homo sapiens, UniProt P07333); experiment: Inhibition of CSF1R phosphorylation in human THP-1 cells by Western blotting analysis; type: cell-based
[3] = molecular target: T3, Aurora kinase A (Homo sapiens) (UniProt O14965); experiment: Inhibition of recombinant GST-AURKA (residues Ser123 to Ser401) (unknown origin) expressed in Sf9 insect cells using tetra(-LRRASLG) peptide as substrate at 1 uM incubated for 90 mins by ATP Kinase Glo assay
T3 sequence (whole entry): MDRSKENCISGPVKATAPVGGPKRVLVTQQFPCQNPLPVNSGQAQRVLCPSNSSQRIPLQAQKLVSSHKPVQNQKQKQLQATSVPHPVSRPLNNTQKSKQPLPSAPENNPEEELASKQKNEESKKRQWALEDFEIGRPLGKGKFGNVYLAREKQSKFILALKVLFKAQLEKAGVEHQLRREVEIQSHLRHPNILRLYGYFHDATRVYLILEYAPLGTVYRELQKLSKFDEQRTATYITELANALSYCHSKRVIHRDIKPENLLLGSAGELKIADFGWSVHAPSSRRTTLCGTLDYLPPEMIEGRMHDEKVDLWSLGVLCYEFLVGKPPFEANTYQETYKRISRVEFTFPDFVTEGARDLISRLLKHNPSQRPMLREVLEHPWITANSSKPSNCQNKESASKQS

Mus musculus [4] = experiment: Immunomodulatory activity in mouse MC38 cells inoculated C57BL/6 mouse syngeneic model assessed as increase in M1 to M2 like TAM ratio in tumor at 100 mg/kg, po twice a day for 2 weeks by five days on/two days off schedule relative to control; type: functional, organism-based; details: MC-38
RAW264.7 = experiment: Anti-inflammatory activity mouse RAW264.7 cells assessed as inhibition of LPS-induced TNFalpha production by ELISA; type: functional, cell-based
Mus musculus [5] = experiment: Immunomodulatory activity in mouse MC38 cells inoculated C57BL/6 mouse syngeneic model assessed as increase in cytotoxic CD8+ T cell to M2 like TAM ratio in tumor at 100 mg/kg, po twice a day for 2 weeks by five days on/two days off schedule relative to control; type: functional, organism-based; details: MC-38
[6] = molecular target: T4, Macrophage colony-stimulating factor 1 receptor (Mus musculus) (UniProt P09581); experiment: Inhibition of CSF1R phosphorylation in mouse RAW264.7 cells by Western blotting analysis; type: cell-based
T4 sequence (whole entry): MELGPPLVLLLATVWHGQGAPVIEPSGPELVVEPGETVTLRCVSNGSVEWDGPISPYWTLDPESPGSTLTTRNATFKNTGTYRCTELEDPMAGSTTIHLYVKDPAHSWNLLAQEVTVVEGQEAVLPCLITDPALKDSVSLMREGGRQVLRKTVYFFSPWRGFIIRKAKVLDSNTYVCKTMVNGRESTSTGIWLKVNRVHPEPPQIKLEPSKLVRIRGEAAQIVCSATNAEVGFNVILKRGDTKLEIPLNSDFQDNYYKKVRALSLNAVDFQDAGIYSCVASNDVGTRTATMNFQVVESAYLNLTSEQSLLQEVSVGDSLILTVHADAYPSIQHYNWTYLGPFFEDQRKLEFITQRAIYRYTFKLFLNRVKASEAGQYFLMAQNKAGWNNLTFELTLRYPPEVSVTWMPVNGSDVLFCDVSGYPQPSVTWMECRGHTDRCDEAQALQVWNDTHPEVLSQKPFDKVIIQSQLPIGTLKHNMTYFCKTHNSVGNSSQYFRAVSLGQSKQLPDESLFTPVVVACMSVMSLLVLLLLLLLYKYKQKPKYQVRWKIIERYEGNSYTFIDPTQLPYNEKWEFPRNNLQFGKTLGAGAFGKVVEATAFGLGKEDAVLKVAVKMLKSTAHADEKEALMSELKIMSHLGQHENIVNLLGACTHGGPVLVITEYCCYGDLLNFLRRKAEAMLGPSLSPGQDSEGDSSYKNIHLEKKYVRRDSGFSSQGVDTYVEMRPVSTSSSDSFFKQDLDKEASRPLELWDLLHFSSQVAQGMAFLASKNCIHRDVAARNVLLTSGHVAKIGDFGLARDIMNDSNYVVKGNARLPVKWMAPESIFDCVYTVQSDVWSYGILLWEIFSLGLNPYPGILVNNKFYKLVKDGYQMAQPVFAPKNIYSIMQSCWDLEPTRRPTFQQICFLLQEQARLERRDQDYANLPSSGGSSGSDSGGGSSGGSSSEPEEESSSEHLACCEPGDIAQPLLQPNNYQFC

NFS-60 = experiment: Antiproliferative activity against mouse NFS-60 cells transfected with human ETV6-CSF1R assessed as reduction in cell viability measured after 72 hrs by MTS method; type: functional, cell-based; details: NFS-60, 72 h
BaF3 = experiment: Antiproliferative activity against mouse BaF3 cells transfected with human ETV6-CSF1R assessed as reduction in cell viability measured after 72 hrs by MTS method; details: BaF3, 72 h
[7] = molecular target: T5, Receptor-type tyrosine-protein kinase FLT3 (Homo sapiens, UniProt P36888); experiment: Inhibition of wild-type human partial length FLT3 (V592 to Y969 residues) expressed in bacterial expression system by Kinomescan method
T5 sequence (P36888 whole entry): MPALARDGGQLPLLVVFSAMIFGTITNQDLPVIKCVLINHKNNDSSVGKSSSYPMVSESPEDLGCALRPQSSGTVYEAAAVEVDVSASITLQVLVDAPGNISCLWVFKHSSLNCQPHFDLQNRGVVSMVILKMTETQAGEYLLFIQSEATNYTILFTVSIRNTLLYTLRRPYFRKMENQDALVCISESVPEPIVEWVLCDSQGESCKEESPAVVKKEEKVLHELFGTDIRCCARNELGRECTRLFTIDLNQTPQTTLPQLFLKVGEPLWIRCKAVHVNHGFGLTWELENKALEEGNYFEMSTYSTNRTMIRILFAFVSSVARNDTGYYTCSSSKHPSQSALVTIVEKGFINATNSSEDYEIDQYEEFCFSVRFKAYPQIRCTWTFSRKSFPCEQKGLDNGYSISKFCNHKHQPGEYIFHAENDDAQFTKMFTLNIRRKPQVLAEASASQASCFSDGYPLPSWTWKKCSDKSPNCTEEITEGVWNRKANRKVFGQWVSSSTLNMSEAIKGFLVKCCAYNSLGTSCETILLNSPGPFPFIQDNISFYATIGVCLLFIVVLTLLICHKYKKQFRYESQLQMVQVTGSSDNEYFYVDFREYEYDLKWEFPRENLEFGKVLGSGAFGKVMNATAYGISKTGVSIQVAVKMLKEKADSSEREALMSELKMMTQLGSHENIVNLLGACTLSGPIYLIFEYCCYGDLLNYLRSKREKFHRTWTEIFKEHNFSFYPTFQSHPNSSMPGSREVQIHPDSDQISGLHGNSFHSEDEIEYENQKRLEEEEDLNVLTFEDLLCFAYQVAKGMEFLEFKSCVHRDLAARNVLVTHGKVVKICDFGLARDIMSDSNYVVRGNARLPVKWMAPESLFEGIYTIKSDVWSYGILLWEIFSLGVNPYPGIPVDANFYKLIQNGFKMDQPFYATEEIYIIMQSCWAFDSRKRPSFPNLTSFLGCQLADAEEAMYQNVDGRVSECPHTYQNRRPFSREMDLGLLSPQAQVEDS

[8] = Oral bioavailability in Sprague-Dawley rat at 20 to 25 mg/kg measured up to 24 hrs by LC-MS/MS analysis; type: ADME, organism-based; details: in vivo, dose 20-25 mg/kg
[9] = molecular target: Platelet-derived growth factor receptor beta (Homo sapiens, UniProt P09619); experiment: Inhibition of wild-type human partial length PDGFRbeta (V582 to Y1009 residues) expressed in bacterial expression system by Kinomescan method
[10] = Volume of distribution at steady state in Sprague-Dawley rat at 5 mg/kg, iv measured up to 24 hrs by LC-MS/MS analysis; type: ADME, organism-based; details: in vivo, read-out: Vdss
[11] = molecular target: Mast/stem cell growth factor receptor Kit (Homo sapiens, UniProt P10721); experiment: Inhibition of human c-Kit by Kinomescan method
[12] = Half life in Sprague-Dawley rat at 20 to 25 mg/kg, po measured up to 24 hrs by LC-MS/MS analysis; type: ADME, organism-based; details: in vivo, dose 20-25 mg/kg
[13] = molecular target: Platelet-derived growth factor receptor alpha (Homo sapiens, UniProt P16234); experiment: Inhibition of wild-type human partial length PDGFRalpha (V575 to D1002 residues) expressed in mammalian expression system by Kinomescan method
[14] = Dose normalized Cmax in Sprague-Dawley rat at 20 to 25 mg/kg, po measured up to 24 hrs by LC-MS/MS analysis; type: ADME, organism-based; details: in vivo, dose 20-25 mg/kg
[15] = molecular target: Vascular endothelial growth factor receptor 2 (Homo sapiens, UniProt P35968); experiment: Inhibition of wild-type human partial length VEGFR2 (R787 to P1253 residues) expressed in mammalian expression system by Kinomescan method
[16] = Tmax in Sprague-Dawley rat at 20 to 25 mg/kg, po measured up to 24 hrs by LC-MS/MS analysis; type: ADME, organism-based; details: in vivo, dose 20-25 mg/kg
[17] = molecular target: Epithelial discoidin domain-containing receptor 1 (Homo sapiens, UniProt Q08345); experiment: Inhibition of wild-type human partial length DDR1 (R565 to V876 residues) expressed in bacterial expression system by Kinomescan method
Aurora kinase A = molecular target: T6, Aurora kinase A (Homo sapiens, UniProt O14965); experiment: Inhibition of recombinant GST-AURKA (residues Ser123 to Ser401) (unknown origin) expressed in Sf9 insect cells using tetra(-LRRASLG) peptide as substrate incubated for 90 mins by ATP Kinase Glo assay
T6 sequence (O14965 whole entry): T3 sequence (whole entry)

[18] = molecular target: T2, Macrophage colony-stimulating factor 1 receptor; experiment: Inhibition of human recombinant GST-CSF1R (residues L534 to C972) expressed in Sf9 insect cells using poly(Glu,Tyr) as substrate incubated for 20 mins by ATP Kinase Glo assay
[19] = Clearance in Sprague-Dawley rat at 5 mg/kg, iv measured up to 24 hrs by LC-MS/MS analysis; type: ADME, organism-based; details: in vivo
BMDM [20] = experiment: Growth inhibition of CSF2-induced mouse BMDM cell assessed as inhibition of M1 like macrophage growth for 3 days by WST-8 assay; details: 72 h
Aurora kinase B [21] = molecular target: T1, Aurora kinase B; experiment: Inhibition of wild-type human partial length AURKB (D25 to A303 residues) expressed in mammalian expression system by Kinomescan method
[22] = molecular target: Serine/threonine-protein kinase PAK 3 (Homo sapiens, UniProt O75914); experiment: Inhibition of wild-type human full length PAK3 (M1 to R544 residues) expressed in bacterial expression system by Kinomescan method
[23] = Half life in Sprague-Dawley rat at 5 mg/kg, iv measured up to 24 hrs by LC-MS/MS analysis; type: ADME, organism-based; details: in vivo
Aurora kinase B [24] = molecular target: T1, Aurora kinase B; experiment: Inhibition of human recombinant full length GST-AURKB using tetra(-LRRASLG) peptide as substrate incubated for 20 mins by ATP Kinase Glo assay; parameters: species or system Sf9
BMDM [25] = experiment: Growth inhibition of CSF1-induced mouse BMDM cell assessed as inhibition of M2 like macrophage growth incubated for 3 days by WST-8 assay; details: 72 h

T1 sequence (Q96GD4 whole entry): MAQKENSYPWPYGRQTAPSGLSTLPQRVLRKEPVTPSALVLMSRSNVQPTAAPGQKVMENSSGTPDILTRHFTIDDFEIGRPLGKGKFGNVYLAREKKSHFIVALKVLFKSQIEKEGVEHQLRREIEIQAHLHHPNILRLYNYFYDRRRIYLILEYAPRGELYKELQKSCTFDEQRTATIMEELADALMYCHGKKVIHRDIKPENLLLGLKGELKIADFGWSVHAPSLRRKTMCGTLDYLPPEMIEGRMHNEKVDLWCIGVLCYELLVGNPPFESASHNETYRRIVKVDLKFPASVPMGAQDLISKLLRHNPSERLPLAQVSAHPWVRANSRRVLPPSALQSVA
T2 sequence (P07333 whole entry, the tested form may be a part): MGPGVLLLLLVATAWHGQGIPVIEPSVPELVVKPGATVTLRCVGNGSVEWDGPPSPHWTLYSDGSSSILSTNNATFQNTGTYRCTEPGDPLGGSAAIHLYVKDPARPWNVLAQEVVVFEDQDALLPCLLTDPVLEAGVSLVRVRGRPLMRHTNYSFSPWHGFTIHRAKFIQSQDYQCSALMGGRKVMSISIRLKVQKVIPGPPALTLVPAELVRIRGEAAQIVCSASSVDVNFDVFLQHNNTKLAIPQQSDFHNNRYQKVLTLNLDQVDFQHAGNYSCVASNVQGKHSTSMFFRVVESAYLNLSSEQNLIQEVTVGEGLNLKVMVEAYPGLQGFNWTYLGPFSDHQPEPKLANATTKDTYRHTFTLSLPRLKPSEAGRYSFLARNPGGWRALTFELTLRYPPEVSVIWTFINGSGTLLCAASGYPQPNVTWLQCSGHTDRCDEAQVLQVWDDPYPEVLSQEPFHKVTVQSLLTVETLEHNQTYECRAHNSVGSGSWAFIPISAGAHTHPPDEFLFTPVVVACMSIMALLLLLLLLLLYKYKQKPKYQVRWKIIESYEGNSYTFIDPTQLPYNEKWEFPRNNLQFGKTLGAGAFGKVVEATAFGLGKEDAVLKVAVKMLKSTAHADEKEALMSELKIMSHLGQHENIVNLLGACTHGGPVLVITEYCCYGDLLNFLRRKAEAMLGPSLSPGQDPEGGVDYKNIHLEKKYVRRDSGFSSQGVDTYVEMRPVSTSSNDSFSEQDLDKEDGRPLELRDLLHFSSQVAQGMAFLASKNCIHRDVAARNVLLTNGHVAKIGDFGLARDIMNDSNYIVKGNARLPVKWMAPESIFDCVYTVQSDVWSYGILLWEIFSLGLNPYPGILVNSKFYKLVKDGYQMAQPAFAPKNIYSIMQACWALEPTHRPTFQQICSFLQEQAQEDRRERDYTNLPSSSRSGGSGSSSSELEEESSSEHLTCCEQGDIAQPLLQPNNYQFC
Chain of Epithelial discoidin domain-containing receptor 1 (Q08345 whole entry, the tested form may be a part): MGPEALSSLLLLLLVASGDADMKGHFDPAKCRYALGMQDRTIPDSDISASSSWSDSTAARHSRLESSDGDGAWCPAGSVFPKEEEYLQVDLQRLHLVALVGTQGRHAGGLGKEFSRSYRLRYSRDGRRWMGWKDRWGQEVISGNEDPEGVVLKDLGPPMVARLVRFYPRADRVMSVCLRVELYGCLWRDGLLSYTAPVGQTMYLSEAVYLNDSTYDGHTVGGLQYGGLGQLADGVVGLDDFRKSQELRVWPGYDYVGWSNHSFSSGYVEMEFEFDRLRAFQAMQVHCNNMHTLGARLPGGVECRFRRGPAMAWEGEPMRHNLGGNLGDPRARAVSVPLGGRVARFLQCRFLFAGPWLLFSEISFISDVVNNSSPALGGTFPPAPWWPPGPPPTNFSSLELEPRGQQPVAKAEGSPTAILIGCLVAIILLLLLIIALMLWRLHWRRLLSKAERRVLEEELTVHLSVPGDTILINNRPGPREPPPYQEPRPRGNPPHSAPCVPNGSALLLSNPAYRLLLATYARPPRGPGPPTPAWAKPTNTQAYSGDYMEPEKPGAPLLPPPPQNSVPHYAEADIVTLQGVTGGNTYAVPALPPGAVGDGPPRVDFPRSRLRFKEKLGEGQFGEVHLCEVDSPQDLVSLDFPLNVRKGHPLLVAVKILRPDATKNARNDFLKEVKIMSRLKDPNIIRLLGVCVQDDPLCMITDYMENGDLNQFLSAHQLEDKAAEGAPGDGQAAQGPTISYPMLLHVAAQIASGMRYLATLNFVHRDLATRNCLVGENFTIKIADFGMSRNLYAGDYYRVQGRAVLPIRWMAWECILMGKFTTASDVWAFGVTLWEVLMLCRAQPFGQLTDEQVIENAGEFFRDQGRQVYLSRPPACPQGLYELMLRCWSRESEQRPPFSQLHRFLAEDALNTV
Chain of Vascular endothelial growth factor receptor 2 (P35968 whole entry, the tested form may be a part): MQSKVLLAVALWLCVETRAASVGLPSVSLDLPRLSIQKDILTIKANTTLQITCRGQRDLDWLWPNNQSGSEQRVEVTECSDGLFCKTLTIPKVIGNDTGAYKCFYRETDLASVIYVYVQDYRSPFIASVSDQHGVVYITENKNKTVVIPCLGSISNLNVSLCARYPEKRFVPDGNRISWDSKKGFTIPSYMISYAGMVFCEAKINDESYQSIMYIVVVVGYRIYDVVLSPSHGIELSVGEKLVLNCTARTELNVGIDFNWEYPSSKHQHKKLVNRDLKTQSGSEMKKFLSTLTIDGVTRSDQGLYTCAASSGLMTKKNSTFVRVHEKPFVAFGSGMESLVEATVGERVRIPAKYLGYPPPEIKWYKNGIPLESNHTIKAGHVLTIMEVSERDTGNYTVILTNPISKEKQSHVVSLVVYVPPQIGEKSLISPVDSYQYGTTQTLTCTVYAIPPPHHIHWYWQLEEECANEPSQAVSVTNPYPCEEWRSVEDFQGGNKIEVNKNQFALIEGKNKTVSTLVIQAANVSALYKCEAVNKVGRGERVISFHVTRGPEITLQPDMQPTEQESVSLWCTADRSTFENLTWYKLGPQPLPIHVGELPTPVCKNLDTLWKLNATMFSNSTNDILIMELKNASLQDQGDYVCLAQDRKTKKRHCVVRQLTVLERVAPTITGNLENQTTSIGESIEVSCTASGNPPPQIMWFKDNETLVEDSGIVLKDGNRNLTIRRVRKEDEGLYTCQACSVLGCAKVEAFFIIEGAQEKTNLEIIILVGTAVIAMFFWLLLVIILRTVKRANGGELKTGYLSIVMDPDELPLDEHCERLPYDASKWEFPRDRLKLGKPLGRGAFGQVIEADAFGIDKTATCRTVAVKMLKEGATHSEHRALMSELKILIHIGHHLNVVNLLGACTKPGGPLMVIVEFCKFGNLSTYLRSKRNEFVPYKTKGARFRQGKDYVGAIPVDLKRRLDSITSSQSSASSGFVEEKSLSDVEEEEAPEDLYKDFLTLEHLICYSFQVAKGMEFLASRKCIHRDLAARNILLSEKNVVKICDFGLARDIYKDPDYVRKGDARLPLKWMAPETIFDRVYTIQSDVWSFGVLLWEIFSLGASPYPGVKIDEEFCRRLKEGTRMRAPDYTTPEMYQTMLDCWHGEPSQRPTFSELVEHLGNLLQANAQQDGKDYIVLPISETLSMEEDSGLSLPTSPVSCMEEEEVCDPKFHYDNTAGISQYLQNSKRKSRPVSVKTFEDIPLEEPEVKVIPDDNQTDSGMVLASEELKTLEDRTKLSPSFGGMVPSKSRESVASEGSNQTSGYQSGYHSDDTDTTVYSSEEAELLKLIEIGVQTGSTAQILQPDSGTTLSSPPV
Chain of Serine/threonine-protein kinase PAK 3 (O75914 whole entry, the tested form may be a part): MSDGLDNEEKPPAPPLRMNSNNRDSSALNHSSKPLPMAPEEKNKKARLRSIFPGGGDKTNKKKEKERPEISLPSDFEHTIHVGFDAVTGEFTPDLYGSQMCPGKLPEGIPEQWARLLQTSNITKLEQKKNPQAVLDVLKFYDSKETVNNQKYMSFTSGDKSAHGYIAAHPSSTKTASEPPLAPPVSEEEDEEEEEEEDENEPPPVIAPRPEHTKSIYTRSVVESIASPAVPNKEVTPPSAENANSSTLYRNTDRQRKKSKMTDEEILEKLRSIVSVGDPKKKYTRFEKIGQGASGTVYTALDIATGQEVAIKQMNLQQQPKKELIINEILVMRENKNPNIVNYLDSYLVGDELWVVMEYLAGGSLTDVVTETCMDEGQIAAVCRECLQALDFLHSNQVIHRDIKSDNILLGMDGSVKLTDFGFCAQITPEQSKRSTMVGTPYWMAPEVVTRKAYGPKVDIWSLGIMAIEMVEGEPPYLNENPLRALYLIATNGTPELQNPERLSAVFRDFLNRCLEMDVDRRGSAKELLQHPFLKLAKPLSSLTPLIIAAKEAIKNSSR

CN(C)c1ccc2c(Oc3ccc(NC(=O)NCc4ccc(C(F)(F)F)nc4)cc3)ncnc2c1 [listing 1 of 2 here]
inhibition (Aurora kinase B [1]): 16%
inhibition [2]: Dose-Dependent Effect
inhibition [3]: 7%
Activity (Mus musculus [4]): Active
inhibition (RAW264.7): Active
Activity (Mus musculus [5]): Active
inhibition [6]: Dose-Dependent Effect

CN(C)c1ccc2c(Oc3ccc(NC(=O)NCc4ccc(C(F)(F)F)nc4)cc3)ncnc2c1 [listing 2 of 2 here]
EC50 (NFS-60): 95 nM
EC50 (BaF3): 80 nM
IC50 [7]: 64.3 nM
bioavailability [8]: 10%
IC50 [9]: 31.5 nM
Vd [10]: 0.6 L/kg
IC50 [11]: 1.1 nM
half-life [12]: 8.7 h
IC50 [13]: 52.7 nM
Cmax/dose [14]: 24 ng/mL
IC50 [15]: > 9000 nM
Tmax [16]: 5.5 h
IC50 [17]: 59.7 nM
IC50 (Aurora kinase A): > 10000 nM
IC50 [18]: 14.4 nM
clearance [19]: 4.5 mL/min/kg
IC50 (BMDM [20]): 5390 nM
IC50 (Aurora kinase B [21]): 226 nM
IC50 [22]: > 9000 nM
half-life [23]: 2.9 h
IC50 (Aurora kinase B [24]): 1400 nM
IC50 (BMDM [25]): 31 nM
